Measurements from PMC9630125 (Oncogene, 2022).

Molecular target: Misshapen-like kinase 1 (MINK1) (Homo sapiens, UniProt Q8N4C8)
Assay: ADP-Glo kinase assay with recombinant human MINK1, MBP substrate and ATP
Type: biochemical

Sequence of Misshapen-like kinase 1 (MINK1) (Q8N4C8 whole entry): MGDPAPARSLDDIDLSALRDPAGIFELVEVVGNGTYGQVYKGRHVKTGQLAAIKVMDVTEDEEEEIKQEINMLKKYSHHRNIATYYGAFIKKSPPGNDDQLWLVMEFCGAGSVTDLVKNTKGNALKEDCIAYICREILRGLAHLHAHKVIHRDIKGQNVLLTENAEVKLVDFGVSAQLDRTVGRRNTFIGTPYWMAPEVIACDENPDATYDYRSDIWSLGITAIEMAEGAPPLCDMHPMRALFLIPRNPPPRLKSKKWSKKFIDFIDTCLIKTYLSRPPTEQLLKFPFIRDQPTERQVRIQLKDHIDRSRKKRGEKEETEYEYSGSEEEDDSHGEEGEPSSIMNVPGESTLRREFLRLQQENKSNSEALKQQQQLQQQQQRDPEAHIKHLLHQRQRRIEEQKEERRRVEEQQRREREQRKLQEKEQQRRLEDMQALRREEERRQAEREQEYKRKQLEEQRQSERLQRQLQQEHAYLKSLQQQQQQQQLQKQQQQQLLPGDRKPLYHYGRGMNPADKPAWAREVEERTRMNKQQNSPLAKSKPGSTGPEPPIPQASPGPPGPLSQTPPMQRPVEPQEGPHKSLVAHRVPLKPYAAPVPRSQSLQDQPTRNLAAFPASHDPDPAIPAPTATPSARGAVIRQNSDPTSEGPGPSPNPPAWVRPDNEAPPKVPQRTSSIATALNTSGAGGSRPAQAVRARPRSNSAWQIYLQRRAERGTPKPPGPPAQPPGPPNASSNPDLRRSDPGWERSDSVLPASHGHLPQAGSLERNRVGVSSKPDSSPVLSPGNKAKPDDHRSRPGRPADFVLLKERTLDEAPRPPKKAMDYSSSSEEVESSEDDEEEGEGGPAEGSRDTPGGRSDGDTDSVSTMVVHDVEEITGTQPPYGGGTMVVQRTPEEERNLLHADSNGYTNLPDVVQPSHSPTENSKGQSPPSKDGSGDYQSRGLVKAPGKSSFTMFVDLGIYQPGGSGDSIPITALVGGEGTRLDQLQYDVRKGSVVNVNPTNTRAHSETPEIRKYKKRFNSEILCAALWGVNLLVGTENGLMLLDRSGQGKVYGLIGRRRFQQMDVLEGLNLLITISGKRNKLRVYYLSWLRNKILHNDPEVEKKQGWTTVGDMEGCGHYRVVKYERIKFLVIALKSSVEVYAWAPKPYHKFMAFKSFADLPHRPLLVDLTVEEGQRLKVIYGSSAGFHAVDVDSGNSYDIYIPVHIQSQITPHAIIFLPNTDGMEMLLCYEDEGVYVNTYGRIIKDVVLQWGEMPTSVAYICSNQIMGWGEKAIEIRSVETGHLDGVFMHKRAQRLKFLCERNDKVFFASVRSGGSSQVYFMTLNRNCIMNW

IC50: 10 µM
SMILES: Cc1ccc(-n2nc(C(C)(C)C)cc2NC(=O)NCc2cc(F)ccc2Oc2ccc3c(cnn3CCO)c2)cc1 [pexmetinib]
